Target: T1, hSK3 channels (Homo sapiens, UniProt Q9UGI6)
T1 construct: expressed in transfected cells; host or cells: HEK293
Experiment: Whole-cell patch-clamp recording of SK3 current in HEK293 cells expressing hSK3 channels
Format: cell-based
Description: The ionic current through small-conductance Ca^2+-activated K^+ channels (SK channels, subtype 3) is recorded using the whole-cell configuration of the patch-clamp technique in a classic patch-clamp set-up using HEK293 tissue culture cells expressing hSK3 channels as described in e.g. WO 2006/100212.
The SC100 value determined is defined as the Stimulating Concentration required for increasing the baseline current by 100%. The below SC100 values are an indication of the SK3 activating properties of the compounds of the invention.

Structure (SMILES) | SC100 (Stimulating Concentration required for increasing the baseline current by 100%) [µM]
Cc1cc(C)n(-c2nc(NC3Cc4ccccc4C3)c3ncn(C)c3n2)n1 [Compound 5.1, [2-(3,5-Dimethyl-pyrazol-1-yl)-9-methyl-9H-purin-6-yl]-indan-2-yl-amine] | 0.04
Cc1ccn(-c2nc(NC3Cc4ccccc4C3)c3ncn(C)c3n2)n1 [Compound 5.2, Indan-2-yl-[9-methyl-2-(3-methyl-pyrazol-1-yl)-9H-purin-6-yl]-amine] | 0.10

Reference: patent US20110237607A1, “SUBSTITUTED PURINYL-PYRAZOL DERIVATIVES AND THEIR USE AS POTASSIUM CHANNEL MODULATORS” (NEUROSEARCH A/S, priority 2008, published 2011)
